Test results from US6906095B2, “Indolylalkylidenehydrazine-carboximidamide derivatives as 5-hydroxytryptamine-6 ligands” (Wyeth, priority 2002, dated 2005).

Molecular target: T1, human cloned 5-HT6 receptors (Homo sapiens, UniProt P50406)
T1 construct: expressed in transfected cells; host or cells: Hela cells
Test: 5-HT6 binding affinity, [3H]-LSD displacement in membranes of Hela cells
Settings: for inhibition at 0.1 µM: test compound dose 100 nM

T1 sequence (P50406 whole entry): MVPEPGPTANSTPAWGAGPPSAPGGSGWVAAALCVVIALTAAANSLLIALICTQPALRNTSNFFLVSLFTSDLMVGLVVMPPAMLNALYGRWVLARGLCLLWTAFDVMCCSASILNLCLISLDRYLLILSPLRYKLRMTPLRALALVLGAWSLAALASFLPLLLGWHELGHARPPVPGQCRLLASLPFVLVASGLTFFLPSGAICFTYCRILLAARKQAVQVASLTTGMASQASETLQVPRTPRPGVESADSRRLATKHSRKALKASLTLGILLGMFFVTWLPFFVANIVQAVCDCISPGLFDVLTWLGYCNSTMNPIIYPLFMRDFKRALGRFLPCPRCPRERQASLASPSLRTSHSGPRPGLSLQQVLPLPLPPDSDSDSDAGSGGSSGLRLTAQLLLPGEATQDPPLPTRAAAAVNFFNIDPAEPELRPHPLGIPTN

For `CC(=NNC(=N)N)c1c(-c2ccc3ccccc3c2)n(S(=O)(=O)c2ccccc2)c2ccccc12` [Example 14, 2-{1-[2-(2-naphthyl)-1-(phenylsulfonyl)-1H-indol-3-yl]ethylidene}hydrazinecarboximidamide], the inhibition at 1 µM (test compound dose 1000 nM, [3H]-LSD 3.0 nM, read-out: % Inhibition) was 85.4%.

`CC(=NNC(=N)N)c1cn(S(=O)(=O)c2ccc(-c3ccccc3)cc2)c2ccccc12` [Example 26, 2-{1-[1-([1,1′-biphenyl]-4-ylsulfonyl)-1H-indol-3-yl]ethylidene}hydrazinecarboximidamide] was tested, and the inhibition at 0.1 µM ([3H]-LSD 3.0 nM) was 39.7%.

`CCCCS(=O)(=O)n1cc(C(C)=NNC(=N)N)c2cc(Cl)ccc21` [Example 75, 2-{1-[1-(butylsulfonyl)-5-chloro-1H-indol-3-yl]ethylidene}hydrazinecarboximidamide] was tested, and the inhibition at 0.1 µM ([3H]-LSD 3.0 nM) was 84.6%.

Compound `CC(=NNC(=N)N)c1cn(S(=O)(=O)c2cccc3nonc23)c2ccccc12` [Example 25] has a Ki of 15 nM and an inhibition at 0.1 µM ([3H]-LSD 3.0 nM) of 79.6%.

`CC(=NNC(=N)N)c1cn(S(=O)(=O)c2cc(Br)c(Cl)s2)c2ccccc12` [Example 28, 2-(1-{1-[(4-bromo-5-chlorothien-2-yl)sulfonyl]-1H-indol-3-yl}ethylidene)hydrazinecarboximidamide] showed an inhibition at 0.1 µM ([3H]-LSD 3.0 nM) of 58.3%.

In the case of `CC(=NNC(=N)N)c1cn(S(=O)(=O)c2cn(C)cn2)c2ccccc12` [Example 47, 2-(1-{1-[(1-methyl-1H-imidazol-4-yl)sulfonyl]-1H-indol-3-yl}ethylidene)hydrazinecarboximidamide], the Ki is reported as 46 nM and the inhibition at 0.1 µM ([3H]-LSD 3.0 nM) is reported as 81.1%.

In the case of `CCC(=NNC(=N)N)c1cn(S(=O)(=O)c2ccc3ccccc3c2)c2ccc(Cl)cc12` [Example 122, 2-{1-[5-chloro-1-(2-naphthylsulfonyl)-1H-indol-3-yl]propylidene}hydrazinecarboximidamide], the Ki is reported as 101 nM.
